# Laboratory results: article PMC10386886, “First-in-class multifunctional TYMS nonclassical antifolate inhibitor with potent in vivo activity that prolongs survival” (JCI Insight, 2023)
# How the values were obtained:
# DHFR = molecular target: T1, DHFR (Homo sapiens, UniProt P00374); test: Absorbance-based DHFR activity assay; format: biochemical; details: Figure 6D
# T1 construct: purchased Sigma D6566 (kit CS0340)
# T1 sequence (P00374 1-187): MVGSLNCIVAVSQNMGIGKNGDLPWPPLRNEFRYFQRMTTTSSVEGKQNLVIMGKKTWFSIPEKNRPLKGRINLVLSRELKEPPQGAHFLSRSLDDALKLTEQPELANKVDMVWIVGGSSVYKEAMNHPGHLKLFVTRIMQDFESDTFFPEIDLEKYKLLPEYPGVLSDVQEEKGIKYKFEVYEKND
# Procedure: DHFR assay kit (Sigma Aldrich, Cat # CS0340) as described by the manufacturer. 0.1-unit DHFR
# analogues or control drugs, 6 μL NADPH Cat # N6505 solution and 5 μl of dihydrofolic acid (DHFR
# substrate) (Sigma, Cat # D7006). The reaction was then read on the spectrophotometer at 340 nm at
# 22 °C every 15 seconds for 2.5 minutes.
# in vivo = details: NSG, mouse, po
# Procedure: Maximum tolerated dose (MTD)
# experiment) or 5, 10, 25 or 50 mg/kg of 5-FU daily during 5 consecutive days. After 3 treatment cycles,
# animals rested (no treatment) for one more week before euthanasia. Body weight and physical status
# of all mice were closely monitored. Tissues were collected and fixed in alcoholic formalin to test for
# daily during 5 consecutive days for 3 weeks. After 3 treatment cycles, animals rested (no treatment) for
# one more week before euthanasia. Body weight and physical status of all mice were closely monitored.
# Tissues were collected and fixed in alcoholic formalin to test for toxicity.
# Specimens were fixed in alcoholic formalin for 48h and then transferred to 70% ethanol, processed and
# embedded in paraffin. Tissues were serially sectioned and stained by conventional H&E. Slides were
# [1] = tested on: Luc-PANC-1 xenograft tumors; test: Luc-PANC-1 subcutaneous xenograft tumor model; format: in vivo; details: 25 mg/kg PO, 4 cycles, Figure 9
# Text: In the subcutaneous tumor model, the resulting Luc-PANC-1 xenograft tumors were monitored by direct tumor measurements and bioluminescence photon flux that is proportional to tumor size. […] Treatment was initiated 30 days after Luc-PANC-1 cell line subcutaneous injections (5 × 10^6 cells), when tumors reached 100 mm^3 in volume, generating a bioluminescence photon flux of 3 × 10^9 to 4 × 10^9 photons/s. […] Tumors from both treatment groups were excised, and the tumor mass was weighed (Figure 2E).
# Luc-PANC-1 (5 × 10^6) and Luc-CM (0.5 × 10^6) cells were resuspended in 200 μL of PBS and injected subcutaneously or IP, respectively, into 6- to 8-week-old NSG mice. Tumor-bearing mice were imaged using Xenogen IVIS Lumina Bioluminescence Imaging System (PerkinElmer) every week after cell injection. […] For all animals, body weight was recorded weekly, and Luc-PANC-1 tumor volume was measured weekly with a caliper. For scheduled sacrifice experiments, animals were euthanized after 4 weeks of treatment. […] Tumor volume was calculated as volume = 0.52(length × width^2).
# Prior to bioluminescence imaging the region where tumors were located was shaved. […] Following the injection of the D-luciferin substrate mice, were imaged using the Xenogen IVIS Lumina Bioluminescence Imaging System (PerkinElmer). The peak of luciferase photon flux was recorded 6 minutes after injection of the D-luciferin substrate. The total photon flux was analyzed and restricted to tumor region of interest using Living Image v2.60.1 software (Imaging Systems).
# MIA PaCa-2 cells = test: MTS viability assay, MIA PaCa-2; format: cell-based; details: Homo sapiens, 72-hour drug treatment, Figure 6E, highest concentration 350 μM
# Procedure: Cells were harvested after 72 hours, and cell pellets were stored at –80°C. […] After 72 hours, cell viability was assessed by reduction of MTS using Cell Titer 96 R Aqueous One Solution Cell Proliferation Assay Kit (Promega, catalog G8081), following manufacturer’s recommendations. […] was measured on a SpectraMax M3 (Molecular Devices). Data were plotted in GraphPad Prism 9 to determine GI50 concentration. Chemical synthesis details, including characterization of each compound, can be found in the Supplemental section associated with this publication.
# purified human TYMS = molecular target: T2, purified human TYMS (Homo sapiens, UniProt P04818); test: Competitive drug displacement assay (tritium TYMS assay); format: biochemical
# T2 construct: 6xHis (N); made in house; host or cells: E. coli BL21 (DE3), vector pQE80L-hTYMS
# Procedure: For these experiments the TYMS protein was first incubated with each drug, and the reaction was then initiated by addition of 5,10-mTHF and dUMP using different concentrations of either 5,10-mTHF or dUMP to change the substrate/drug ratio. If there was competition between one of the substrates and the drug for the same binding site, then increasing the substrate concentration would displace more of the prebound drug and shift the equilibrium toward the enzyme/substrate complex, thus allowing the conversion of dUMP to proceed (Figure 7A). […]
# all components including 2 µg TYMS protein to show the range of the assay, the background signal, and the dependence on 5,10-mTHF (Supplemental Figure 2C). To determine the signal from the [5-3H]dUMP tracer used in each reaction the same amount of the dUMP substrate with the [5-3H]dUMP tracer accounting for 0.06% of the final dUMP concentration was added directly to 5 mL of ultima gold liquid scintillation cocktail (Supplemental Figure 2C).
# All reactions were performed in biological duplicate and technical duplicate. Results were analyzed using GraphPad Prism 9.
# Competitive drug displacement assay
# The tritium based TYMS catalytic activity assay was modified to determine if TYMS inhibition from 19-S, 19-S5, and 19-S7 was the result of competitive binding with either the dUMP substrate or the 5,10-mTHF cofactor. The competitive drug displacement assay utilized the standard reaction conditions for the tritium-based TYMS catalytic activity assay including 40 µM dUMP (Sigma Aldrich, Cat # D3876) with the [5- 3H]dUMP tracer (ViTrax, VT122) accounting for 0.06% of the final dUMP concentration and 100 µM 5,10- methylene tetrahydrofolate (defined as 1x dUMP and 1x 5,10-mTHF). Concentrations of total dUMP and 5,10- mTHF were then changed relative to these 1x concentrations to concisely indicate the changes in either the substrate or cofactor concentration. The highest 5x concentration of 5,10 - […]
# 5x concentration of total dUMP was not limited by solubility, although increases were performed in the same increments as 5,10-mTHF for comparison and 0.06% of the [5-3H]dUMP tracer was maintained at all concentrations. The remaining components in each 200 µL reaction were consistent in all reactions and included 2 µg of purified human TYMS in 50 mM KH2PO4 (Sigma Aldrich, Cat # P0662) and 100 mM β- mercaptoethanol (Sigma Aldrich, Cat # M7522). Control antifolate inhibitor PEM (Sigma Aldrich, Cat # PHR1596) was performed for reference of a TYMS specific classical antifolate and to […]
# Human TYMS and DHFR preparation
# Human Thymidylate Synthase (hTYMS) and human Dihydrofolate Reductase (hDHFR) were both expressed in BL21 (DE3) E. coli cells, using a standard BL21 transformation protocol, with the expression vector pQE80L-hTYMS (gift from Maria Paola Costi, University of Modena and Reggio Emilio, Italy) and pET100/D- TOPO (Invitrogen, Cat # K10001), respectively. Both vectors contained an N-terminal 6x Histidine tag attached to either hTYMS or hDHFR. After bacterial transformation, cells
# [2] = TS preincubated with drug, Figure 7
# T2 sequence (P04818 whole entry): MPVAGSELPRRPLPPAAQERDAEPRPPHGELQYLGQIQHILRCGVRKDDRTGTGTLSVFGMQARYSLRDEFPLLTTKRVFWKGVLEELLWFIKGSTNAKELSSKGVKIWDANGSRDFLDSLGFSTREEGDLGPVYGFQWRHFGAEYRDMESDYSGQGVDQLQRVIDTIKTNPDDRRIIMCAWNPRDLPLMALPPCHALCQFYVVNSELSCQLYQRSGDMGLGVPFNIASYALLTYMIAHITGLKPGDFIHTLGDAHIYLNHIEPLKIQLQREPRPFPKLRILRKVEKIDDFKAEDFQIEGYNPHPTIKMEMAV
smiles,measurement,setting,value
CCc1nc(N)nc(N)c1-c1ccc(N(C)Cc2ccc3c(c2)OCO3)c([N+](=O)[O-])c1 [Compound 19-S7],"DHFR activity, comparison at reduced drug concentrations",DHFR,potent TYMS and DHFR inhibition
same,MTD at 3 weeks,in vivo,25 mg/kg
same,Bioluminescence photon flux,[1],reduced bioluminescence photon flux
same,Body weight,[1],did not show adverse effects on or declines in body weight
same,Final excised tumor mass,[1],reduced mass of the final excised tumors
same,Tumor volume,[1],reduced and stable tumor volumes
same,GI50,MIA PaCa-2 cells,200 nM
same,Mechanism of TYMS inhibition,purified human TYMS,blocking the folate-binding site
same,"dUMP conversion with increasing 5,10-mTHF concentration",purified human TYMS; [2],increased the amount of dUMP conversion
same,dUMP conversion with increasing dUMP concentration,purified human TYMS; [2],the amount of dUMP conversion did not increase
